From PubChem BioAssay (NCI)
Values joined by “and” are separate entries in the source; they are usually repeats but may differ in a detail not shown here. Equal entries are not always repeated.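 These data come from cells grown in 96-well plates and exposed to compound for 48 hours at five concentrations. GI50 marks 50% less growth. At the TGI there is no net growth.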

Tests used:
Assay in all cases: DTP human tumour cell line panel, 48 h
SK-MEL-2 melanoma = tested on: SK-MEL-2 melanoma
OVCAR-8 ovarian = tested on: OVCAR-8 ovarian
OVCAR-3 ovarian = tested on: OVCAR-3 ovarian
MOLT-4 leukemia = tested on: MOLT-4 leukemia
K-562 leukemia = tested on: K-562 leukemia
HCC-2998 colon = tested on: HCC-2998 colon
SF-268 CNS = tested on: SF-268 CNS
KM20L2 colon = tested on: KM20L2 colon
DMS 273 small cell lung = tested on: DMS 273 small cell lung
HT29 colon = tested on: HT29 colon
RXF 393 renal = tested on: RXF 393 renal

| SMILES | TGI (SK-MEL-2 melanoma) | TGI (OVCAR-8 ovarian) | TGI (OVCAR-3 ovarian) | TGI (MOLT-4 leukemia) | TGI (K-562 leukemia) | TGI (HCC-2998 colon) | TGI (SF-268 CNS) | TGI (KM20L2 colon) | TGI (DMS 273 small cell lung) | TGI (HT29 colon) | TGI (RXF 393 renal) | GI50 (SK-MEL-2 melanoma) | GI50 (OVCAR-8 ovarian) | GI50 (OVCAR-3 ovarian) | GI50 (MOLT-4 leukemia) | GI50 (HT29 colon) | GI50 (K-562 leukemia) | GI50 (HCC-2998 colon) | GI50 (SF-268 CNS) | GI50 (RXF 393 renal) |
| --- | --- | --- | --- | --- | --- | --- | --- | --- | --- | --- | --- | --- | --- | --- | --- | --- | --- | --- | --- | --- |
| C[Si](C)(OCCS(=O)(=O)O)C1(Cc2cccc3ccccc23)S(=O)(=O)OCCOS1(=O)=O | 46.3 µM | 52.4 µM | 25.9 µM | > 100 µM | > 100 µM | 30.7 µM | 79.5 µM |  |  |  |  |  |  |  |  |  |  |  |  |  |
| COc1ccc(-n2cnnc2-c2nsc3ccccc23)cc1 | > 100 µM | > 100 µM | > 100 µM | > 100 µM | > 100 µM | > 100 µM | > 100 µM | > 100 µM | > 100 µM | > 100 µM | 65.8 µM |  |  |  |  |  |  |  |  |  |
| CC(C)OP(=O)(OC(C)C)/C(I)=N/Nc1ccc([N+](=O)[O-])cc1 | > 100 µM | > 100 µM | > 100 µM | > 100 µM | > 100 µM | > 100 µM | > 100 µM | > 100 µM | > 100 µM | > 100 µM |  |  |  |  |  |  |  |  |  |  |
| CC(NC(=O)C(C)NC(=O)C(N)CCP(C)(=O)O)C(=O)O (configuration not stated) | > 100 µM | > 100 µM | > 100 µM | > 100 µM | > 100 µM | > 100 µM | > 100 µM | > 100 µM | > 100 µM | > 100 µM | > 100 µM |  |  |  |  |  |  |  |  |  |
| Nc1nc(SCc2ccc([N+](=O)[O-])cc2)nc2c1ncn2C1OC(COP(=O)(O)O)C(O)C1O (configuration not stated) | > 100 µM | > 100 µM | > 100 µM | > 100 µM | > 100 µM | > 100 µM | > 100 µM | > 100 µM | > 100 µM | > 100 µM | > 100 µM |  |  |  |  |  |  |  |  |  |
| Cc1ccc(N=N/C(=N\NC(=O)c2ccc(C)cc2)c2ccc(N(CCC#N)CCC#N)cc2C)cc1 | 51.6 µM | > 100 µM | > 100 µM | > 100 µM | > 100 µM | > 100 µM | > 100 µM |  |  | > 100 µM | > 100 µM |  |  |  |  |  |  |  |  |  |
| CCOP(=O)(OCC)/C(C#N)=C/c1cn(C)cn1 | > 100 µM | > 100 µM | > 100 µM |  | > 100 µM | > 100 µM | > 100 µM |  |  | > 100 µM | > 100 µM |  |  |  |  |  |  |  |  |  |
| CC1=Nc2nc(Cl)cn2C(=O)C1(Cl)Cl | > 10 µM | > 10 µM | > 10 µM | > 10 µM | > 10 µM | > 10 µM | > 10 µM |  |  | > 10 µM | > 10 µM |  |  |  |  |  |  |  |  |  |
| N[C@H](C(=O)O)[C@H]1ON=C(Cl)[C@@H]1O | > 550 µM | > 550 µM | > 550 µM | 68 µM | > 550 µM | > 173 µM | > 550 µM | > 394 µM | > 550 µM | > 296 µM | > 93.8 µM and 232 µM | 9.75 µM | 12.2 µM | 449 nM | 2480 nM | 1240 nM | 4.15 µM | 5.62 µM | 5.1 µM | 7.92 µM |
| Cc1ccc(N2Cc3c(ccc4ccccc34)OP2(=O)Oc2ccc(Cl)c(C)c2)cc1 (configuration not stated) | > 100 µM | > 100 µM | > 31.6 µM | > 100 µM | > 100 µM | > 100 µM | > 100 µM | > 100 µM | > 100 µM | > 100 µM | > 100 µM |  |  |  |  |  |  |  |  |  |
